These results are taken from US20080044390A1, “Methods and compositions for the treatment of neurodegenerative disorders” (priority 2006, published 2008).

pEC50: −log10 of the molar value. Read-outs that look alike come from different tables or passages of the source. *1 amine or outer side, *2 acyl side, *3 side chain or, on linkers, in order; H or OH if unused. Where a SMILES comes first, the peptide text is derived from it. [ ]: non-standard residue; d: D form. The star is where a group is joined. hPhe = N[CH](CCc1ccccc1)C(=O)O; Morpholide = C1CN(*)CCO1; CO = O=C([*:1])[*:2]; CH2F = FC*

The assay concerns PC12/HttN90Q103 cells. Kind of assay: ATPlite assay, rescue of HttN90Q103-induced cell death. The format is cell-based, rat. From the text:
In this stable PC12 line (PC12/HttN90Q103), transcription of the Htt transgene is driven by an ecdysone-regulated promoter such that the expression of HttN90Q103 can be turned on or off by the addition or removal of the non-steroidal ecdysone analog tebufenozide (teb).
Using the engineered PC12/HttN90Q103 cell line together with Perkin Elmer's ATPlite™ assay kit or CellTiter-Blue™ assay, a high throughput assay to screen small molecules for their ability to prevent mutant Htt exon 1-induced cell death was developed and optimized.
The following formulas were used to calculate mutant Htt-induced cytotoxicity and test compound rescue: % killing=[(un-induced−induced-DMSO treated)/un-induced]×100 % rescue=[(drug treated−induced-DMSO treated)/(un-induced−induced-DMSO treated)]×100
For single-agent ranking, the assay was performed in 384-well plates to obtain duplicate dose response curves in 12-step dilutions with a dosing ratio f=2 over 3 orders of magnitude. […]
Day 1—Add Compounds 4 hours post-induction • 1) Remove compound plates from dessicator. • 2) Using the PlateMate, prepare dilution plate with 100 μL per well of the complete cell medium at room temperature in clear untreated 384-well plates. • 3) Using the MiniTrak, make compound dilution plates: 1 μL from each well of stock plates into 100 μL of media in the dilution plate for a 1:100 dilution (10× stock in media). • 4) Using the MiniTrak, add 4.5 μL of the diluted stock to each well of cells in assay plates. • 5) Make positive control solution: dilute 20 mM stock of BOC-D-FMK in media for a 10× stock. • 6) Manually add 4.5 μL positive control to C1-N1. • 7) Incubate plates at 37° C. for three days. • (for ranking combinations, steps 5 and 6 are omitted as there is positive control on the compound plates)
Day 4—Perform ATPlite™ Assay • 1) Take plates out of the incubator. • 2) Using the PlateMate, add 40 μL of ATPlite™ 1-step solution (Perkin Elmer) to each well of the assay plates. • 3) Wait ten minutes to allow plates to dark-adapt. • 4) Read luminescence intensity in Wallac plate reader using […]

Setting [1] is: ATPlite, single agent, 250 nM tebufenozide induction.
[2] abbreviates: ATPlite, single agent, sigmoidal fit of 12-step dose response, read-out: EC50.
Setting [3] is: Rattus norvegicus, PC-12, ATPlite, single agent, 250 nM tebufenozide induction, read-out: Max Effect (% rescue).
[4] abbreviates: Rattus norvegicus, PC-12, ATPlite, single agent, sigmoidal fit of 12-step dose response, read-out: EC50.
The mark [5] stands for this setting: Rattus norvegicus, PC-12, read-out: Max Effect (% rescue).

With `N[C@@H]1C[C@H]1c1ccccc1` (racemic) [Tranylcypromine], under setting [1], the “Max Effect (% rescue)” value is recorded as 16%. Moreover, the pEC50 – broadly, −log10 of the EC50, conventionally taken in molar units – under setting [2] was 5.66.
As for `CC1CNCCN1S(=O)(=O)c1cccc2cnccc12` (centres unmarked) [1-(5-isoquinolinesulfonyl)-2-methylpiperazine], the Emax under setting [3] amounted to 28%. For the same compound, under setting [4], the negative logarithm of the EC50 (pEC50) is 4.81.
For `OC[C@H]1O[C@@H](n2cnc3cc(Cl)c(Cl)cc32)[C@H](O)[C@@H]1O` [5,6-dichloro-1-β-D-ribofuranosylbenzimidazole], the pEC50 (Rattus norvegicus, PC-12) is 5.29. Besides, the Emax under setting [5] was found to be 26%.
With `Nc1ncnc2c1c(I)cn2[C@@H]1C[C@H](N)[C@@H](O)[C@H]1O` [Agent A-134974, N^7-[(1′R,2′S,3′R,4′S)-2′,3′-dihydroxy-4′-aminocyclopentyl]-4-amino-5-iodopyrrolopyrimidine], the “Max Effect (% rescue)” value under setting [1] came to 22%. Further, the pEC50 under setting [2] was 4.88.
Turning to `O=C1Cc2c([nH]c3ccc([N+](=O)[O-])cc23)-c2ccccc2N1` [Alsterpaullone], under setting [3], the Emax amounted to 64%. Also, the pEC50 under setting [4] was 5.74.
With `CC(C)c1ccc2oc3nc(N)c(C(=O)O)cc3c(=O)c2c1` [Amlexanox], the negative-log EC50 (pEC50) (Rattus norvegicus, PC-12) was 5.24. Further, the Emax under setting [5] is 18%.
`CCN(CC)Cc1cc(Nc2ccnc3cc(Cl)ccc23)ccc1O` [Amodiaquine]: the Emax under setting [3] was 62%. In addition, the negative-log EC50 (pEC50) under setting [4] is 4.91.
Turning to `C[C@]12CCC(=O)C[C@@H]1CC[C@@H]1[C@@H]2CC[C@]2(C)[C@@H](O)CC[C@@H]12` [Androstanolone], the pEC50 (Rattus norvegicus, PC-12) is 5.10. Besides, the Emax under setting [5] was 15%.
For the compound `O=C(CF)C(CCc1ccccc1)NC(=O)C(Cc1ccccc1)NC(=O)N1CCOCC1` (centres unmarked) [BML-248, N-morpholineurea-phenylalanyl-homophenylalanylfluoromethyl ketone] ({Morpholide-CO}-Phe-[hPhe]-CH2F; configuration not given here), under setting [1], the “Max Effect (% rescue)” value worked out at 24%. Under setting [2], the pEC50 was 5.15.
On to `O=C(NO)c1ccccc1` [Benzohydroxamic acid], for which the Emax under setting [3] worked out at 15%. Also, the pEC50 under setting [4] was 5.16.
The corresponding values for `CCCC(=O)Nc1ncnc2c1ncn2[C@@H]1O[C@@H]2COP(=O)(O)O[C@H]2[C@H]1OC(=O)CCC` [Bucladesine] are 18% and 4.71.
Consider `COC(=O)CC(NC(=O)OC(C)(C)C)C(=O)CF` [Caspase inhibitor III (BOC-D-fmk)], for which the “% rescue” value (20 μM, positive control, 72 hours following tebufenozide induction) was “More than 50%”. The “Max Effect (% rescue)” value under setting [1] is 119%. Also, under setting [2], the pEC50 was 5.41.
`CC1=C(O)C(=O)C=C2C1=CC=C1[C@@]2(C)CC[C@@]2(C)[C@@H]3C[C@](C)(C(=O)O)CC[C@]3(C)CC[C@]12C` [Celastrol]: the pEC50 (Rattus norvegicus, PC-12) was 6.52. Also, the Emax under setting [5] amounted to 19%.
In the case of `CCN(CC)CCCC(C)Nc1ccnc2cc(Cl)ccc12` (centres unmarked) [Chloroquine], the negative-log EC50 (pEC50) (Rattus norvegicus, PC-12) is 5.01.
For the compound `N=C(N)c1ccc(/N=N/Nc2ccc(C(=N)N)cc2)cc1` [Diminazene], the Emax under setting [3] was 35%. Moreover, the negative-log EC50 (pEC50) under setting [4] is 5.25.
The corresponding values for `CCCC(CCC)C(=O)O` [Divalproex] are 19% and 4.82.
The matching figures for `O=S(=O)(c1cccc2cnccc12)N1CCCNCC1` [Fasudil]: 26% and 5.00.
The matching figures for `O=c1c(O)c(-c2ccc(O)c(O)c2)oc2cc(O)ccc12` [Fisetin]: 52% and 4.91.
Consider `C=C[C@@]1(C)CC(=O)[C@]2(O)[C@@]3(C)[C@@H](O)CCC(C)(C)[C@@H]3[C@H](O)[C@H](OC(C)=O)[C@@]2(C)O1` [Forskolin], for which, under setting [3], the Emax worked out at 18%. In addition, under setting [4], the pEC50 is 6.70.
The corresponding values for `CCN(CCO)CCCC(C)Nc1ccnc2cc(Cl)ccc12` (centres unmarked) [Hydroxychloroquine] are 29% and 5.28.
As to `NC(=O)NO` [Hydroxyurea], the Emax under setting [3] was 22%. The pEC50 under setting [4] is 5.12.
Turning to `O=C(Nc1cccc(C2=NCCN2)c1)Nc1cccc(C2=NCCN2)c1` [Imidocarb], the Emax under setting [3] was determined as 24%. For the same compound, the pEC50 under setting [4] was 4.80.
Consider `O=C1Nc2ccccc2/C1=C1/Nc2ccccc2/C1=N\O` [Indirubin-3′-monooxime], for which the “Max Effect (% rescue)” value under setting [1] came out at 30%. For the same compound, the negative-log EC50 (pEC50) under setting [2] was 5.62.
On to `O=C(/C=C/c1ccc(O)cc1)c1ccc(O)cc1O` [Isoliquiritigenin], for which, under setting [3], the Emax stood at 27%. The pEC50 under setting [4] was 4.90.
For `O=c1c(O)c(-c2ccc(O)cc2)oc2cc(O)cc(O)c12` [Kaempferol], under setting [3], the Emax was found to be 15%. In addition, the negative-log EC50 (pEC50) under setting [4] was 4.91.
With `O=C1Cc2c([nH]c3ccc(Br)cc23)-c2ccccc2N1` [Kenpaullone], the Emax under setting [3] stood at 87%. For the same compound, the negative logarithm of the EC50 (pEC50) under setting [4] is 5.33.
On to `CC(C=NNC(=N)N)=NNC(=N)N` [Methylglyoxal bis(guanylhydrazone)], for which the Emax under setting [3] was found to be 79%. Moreover, the pEC50 under setting [4] is 5.11.
The matching figures for `CCCCC1C(=O)NN(c2ccccc2)C1=O` (centres unmarked) [Mofebutazone]: 19% and 5.25.
The corresponding values for `CC[C@@H](C(=O)O)[C@@H]1O[C@@H]([C@@H](C)[C@H](O)[C@H](C)C(=O)[C@H](CC)[C@H]2O[C@]3(C=C[C@@H](O)[C@]4(CC[C@@](C)([C@H]5CC[C@](O)(CC)[C@H](C)O5)O4)O3)[C@H](C)C[C@@H]2C)[C@@H](C)C[C@@H]1C` [Narasin] are 15% and 7.00.
In the case of `CO[C@@H]1C[C@@H](C[C@H]2CC[C@H](C)[C@H]([C@@H](C)C(=O)O)O2)O[C@]2(O[C@](C)([C@H]3CC[C@@](C)([C@@H]4O[C@@H]([C@H]5O[C@@](O)(CO)[C@H](C)C[C@@H]5C)C[C@@H]4C)O3)C[C@H]2C)[C@@H]1C` [Nigericin], the Emax under setting [3] turned out to be 36%.
In the case of `O=C1Nc2ccc3ncsc3c2/C1=C/c1cnc[nH]1` [PKR inhibitor], under setting [1], the “Max Effect (% rescue)” value worked out at 124%. The pEC50 under setting [2] was 5.92.
Consider `Cc1ncc(CSSCc2cnc(C)c(O)c2CO)c(CO)c1O` [Pyritinol], for which, under setting [3], the Emax worked out at 17%. The pEC50 under setting [4] was 4.82.
The matching figures for `CC(=O)C(=O)O` [Pyruvate]: 5% and 5.92.
In the case of `CC(C)[C@H](NC(=O)c1ccc2ccccc2n1)C(=O)N[C@@H](CC(=O)O)C(=O)COc1c(F)cccc1F` [Q-VD-OPH], the “Max Effect (% rescue)” value under setting [1] was found to be 72%. For the same compound, the pEC50 under setting [2] was 6.22.
Turning to `O=c1c(O)c(-c2ccc(O)c(O)c2)oc2cc(O)cc(O)c12` [Quercetin], the Emax under setting [3] worked out at 23%. The pEC50 under setting [4] is 4.79.
The matching figures for `CN(CCOc1ccc(CC2SC(=O)NC2=O)cc1)c1ccccn1` (centres unmarked) [Rosiglitazone]: 13% and 5.07.
As to `COc1ccc2c(c1)/C(=C/c1cnc[nH]1)C(=O)N2` [SU9516, 3-[1-(3H-imidazol-4-yl)-meth-(Z)-ylidene]-5-methoxy-1,3-dihydro-indol-2-one], the Emax under setting [3] turned out to be 66%. Moreover, under setting [4], the pEC50 is 5.48.
In the case of `CC[C@@H](C(=O)[C@@H](C)[C@@H](O)[C@H](C)[C@@H]1O[C@@H]([C@@H](CC)C(=O)O)CC[C@@H]1C)[C@H]1O[C@]2(C=C[C@@H](O)[C@]3(CC[C@@](C)([C@H]4CC[C@](O)(CC)[C@H](C)O4)O3)O2)[C@H](C)C[C@@H]1C` [Salinomycin], under “Rattus norvegicus, PC-12”, the pEC50 is 6.70. The Emax under setting [5] is 24%.
On to `CC(=O)S[C@@H]1CC2=CC(=O)CC[C@]2(C)[C@H]2CC[C@@]3(C)[C@@H](CC[C@@]34CCC(=O)O4)[C@H]12` [Spironolactone], for which the Emax under setting [3] is 22%. For the same compound, the pEC50 under setting [4] was 5.04.
The corresponding values for `c1ccc(CN(CCN(Cc2ccccn2)Cc2ccccn2)Cc2ccccn2)nc1` [TPEN, N,N,N′,N′-tetrakis(2-pyridylmethyl)-ethylenediamine] are 15% and 5.52.
As for `Nc1c2c(nc3ccccc13)CCCC2` [Tacrine], under setting [3], the Emax came out at 15%. Besides, the pEC50 under setting [4] was 4.40.
In the case of `NC1CCN(c2nc3c(cc2F)c(=O)c(C(=O)O)cn3-c2ccc(F)cc2F)C1` (centres unmarked) [Tosufloxacin], the Emax under setting [3] was determined as 20%. For the same compound, the negative-log EC50 (pEC50) under setting [4] is 5.00.
With `N#C/C(=C\c1ccc(O)c(O)c1)C(N)=O` [Tyrphostin 46], the “Max Effect (% rescue)” value under setting [1] was 23%. Further, the pEC50 under setting [2] was 4.63.
The corresponding values for `CC(=O)ON=C1C(=O)N(Cc2cc(Cl)ccc2Cl)c2ccc(Cl)cc21` [UCH-L1 inhibitor] are 21% and 6.30.
The corresponding values for `O=S(=O)([O-])[O-].[O]=[V+2]` [Vanadyl] are 19% and 6.22.
